In patent publication EP0359821A1, “METHOD OF STERILIZING PLANT ANTHERS” (priority 1988, dated 1989):
Where two headings read alike, the source gives them in different places.

What was measured:
[1] = system: Diploider Roggen Sorte Gibrid 1864/74; assay: Field trial of gametocidal activity, diploid rye Gibrid 1864/74; settings: 1% aqueous emulsion, 10 kg/ha
in vivo [2] = settings: mouse, LD50, weisse Mäuse
[3] = system: Tetraploider Roggen Sorte Gibrid 67; assay: Field trial of gametocidal activity, tetraploid rye Gibrid 67; assay type: in vivo; settings: 1% aqueous emulsion, 10 kg/ha; for Prozentsatz des Ansetzens bei freier Bestäubung: control = 100
Excerpt: (§1) Bei Weizen und Tritikale werden Einzelisolatoren verwendet.
Pflanzen von tetraploidem Roggen Sorte Gibrid 67 werden in der V. oder VI.

[4] = in vivo
[5] = Toxicity in animal test (result in words)
[6] = system: Tetraploider Roggen Sorte Jubileinaya; assay: Field trial of gametocidal activity, tetraploid rye Jubileinaya; settings: 1% aqueous emulsion, 10 kg/ha
[7] = system: Hirse Sorte Mironovskoe 94; assay: Field trial of gametocidal activity, millet Mironovskoe 94; assay type: in vivo; settings: 1% aqueous emulsion, 10 kg/ha; for response vs control in vivo at 10000 g/ha: control = 100, read-out: Prozentsatz des Ansetzens bei freier Bestäubung
[8] = system: Diploider Roggen Sorte Gibrid 340/65; assay: Field trial of gametocidal activity, diploid rye Gibrid 340/65; settings: Gibrid 340/65 (text: 312/65), 1% aqueous emulsion, 10 kg/ha
in vivo [9] = settings: rat
Sonnenblume Linie VK 119 = assay: Field trial of pollen sterilisation, sunflower line VK 119; settings: 0,2% aqueous emulsion, 1,2 kg/ha
[10] = system: Sommerweizen Sorte Moskovskaya 35; assay: Field trial of gametocidal activity, spring wheat; assay type: in vivo, Weizen; settings: 1% aqueous emulsion; for Anzahl von Körnern der Ähre bei freier Bestäubung / Anzahl von Körnern der Ähre im Isolator / pest or weed control at 10000 g/ha / percent sterility at 10000 g/ha: 10 kg/ha, V. period; for pest or weed control at 10000 g/ha / percent sterility at 10000 g/ha: read-out: Prozentsatz der Sterilität; for response vs control in vivo: control = 100, read-out: Prozentsatz des Ansetzens bei freier Bestäubung
[11] = system: Sonnenblume Sorte Peredovik; assay: Field trial of pollen sterilisation, sunflower Peredovik; assay type: in vivo; settings: 0,2% aqueous emulsion, 1,2 kg/ke (so in the source)
Excerpt: Pflanzen der Sonnenblume Sorte Peredovik werden in der V. oder VI.
Der Verbrauch an Sterilisationsmittel beträgt 1,2 kg/ke.

[12] = system: Diploider Roggen Sorte Chulpan; assay: Field trial of gametocidal activity, diploid rye Chulpan; assay type: in vivo; settings: single compounds, 1% aqueous emulsion, 10 kg/ha; for pest or weed control at 10000 g/ha: read-out: Prozentsatz der Sterilität, Chulpan; for response vs control in vivo at 10000 g/ha: read-out: Prozentsatz des Ansetzens bei freier Bestäubung, Chulpan, control = 100
Excerpt: as §1
Pflanzen von diploidem Roggen Sorte Chulpan werden in der V. oder VI.
Der Verbrauch an Sterilisationsmitteln beträgt 10 kg/ha.

[13] = system: Winterweizens Sorte Mironovskaya 808; assay: Field trial of gametocidal activity (anther sterilisation), winter wheat; assay type: in vivo, Weizen; settings: 2% aqueous emulsion, 20 kg/ha; for response vs control in vivo at 20000 g/ha: control = 100, read-out: Prozentsatz des Ansetzens bei freier Bestäubung
[14] = system: Tetraploider Roggen Sorte Belta; assay: Field trial of gametocidal activity, tetraploid rye Belta; assay type: in vivo; settings: 1% aqueous emulsion, 10 kg/ha
[15] = system: Hirse Sorte K-9693 Kormovoe 1; assay: Field trial of gametocidal activity, millet K-9693 Kormovoe 1; settings: 1% aqueous emulsion, 10 kg/ha; for Anzahl von Körnern der Rispe bei freier Bestäubung / Anzahl von Körnern der Rispe im Isolator / Prozentsatz der Sterilität: V. or VI. period; for Prozentsatz des Ansetzens bei freier Bestäubung: control = 100
[16] = V. or VI. period, read-out: Prozentsatz der Sterilität
[17] = V. or VI. period of organogenesis
[18] = Chulpan, V. or VI. period, listed as Beispiel 54
[19] = V. or VI. period, listed as Beispiel 74

O=C(O)c1ccc(O)cc1 [Beispiel 28, Monoäthanolaminat der p-Hydroxybenzoesäure]
Anzahl von Körnern der Ähre bei freier Bestäubung ([1]; V. period): 46,7 | Anzahl von Körnern der Ähre im Isolator ([1]; V. period): 1,8 | Prozentsatz der Sterilität ([1]; V. period): 95,6% | Prozentsatz des Ansetzens bei freier Bestäubung ([1]; control = 100): 97,7% | LD50 (in vivo [2]): 3200 mg/kg | Prozentsatz der Sterilität ([3]; V. or VI. period): 99,7% | Prozentsatz des Ansetzens bei freier Bestäubung [3]: 93,4%

CCC(CO)(CO)CBr [I-Brom-2,2-di-methylol-butan]
Toxizität im Tierversuch [4]: praktisch nichttoxische

OCC(CO)(CO)CBr [Brommethyl-tri(oxymethyl)-methan]
Toxizität im Tierversuch [5]: praktisch nichttoxische

OCC(CO)(CO)CO [Beispiel 58, Pentaerythrit]
Toxizität im Tierversuch [5]: praktisch nichttoxische | Anzahl von Körnern der Ähre bei freier Bestäubung ([6]; V. or VI. period): 45,6 | Anzahl von Körnern der Ähre im Isolator ([6]; V. or VI. period): 0,4 | Prozentsatz des Ansetzens bei freier Bestäubung ([6]; control = 100): 94,4%

CC(C)OC(=S)S [Beispiel 5, Kaliumisopropylxanthogenat]
Anzahl von Körnern der Rispe bei freier Bestäubung ([7]; V. or VI. period): 288,6 | Anzahl von Körnern der Rispe im Isolator ([7]; V. or VI. period): 0,0 | pest or weed control at 10000 g/ha [7, 16]: 100% | response vs control in vivo at 10000 g/ha [7]: 76% | Anzahl von Körnern der Ähre bei freier Bestäubung ([8]; V. and VI. periods): 44,8 | Anzahl von Körnern der Ähre im Isolator ([8]; V. and VI. periods): 0,0 | Prozentsatz der Sterilität ([8]; V. and VI. periods): 100% | Prozentsatz des Ansetzens bei freier Bestäubung ([8]; control = 100): 83,5% | LD50 (in vivo [9]): 760 mg/kg | Ansetzen von Achänen bei freier Bestäubung in % (Sonnenblume Linie VK 119): 85,3% | Ansetzen von Achänen im Isolator bei der Bestäubung mit dem Pollengemisch in % (Sonnenblume Linie VK 119): 0,0% | Pollensterilität in % (Sonnenblume Linie VK 119): 100% | Anzahl von Körnern der Ähre bei freier Bestäubung [10]: 24,9 | Anzahl von Körnern der Ähre im Isolator [10]: 2,3 | pest or weed control at 10000 g/ha [10]: 91.5% | response vs control in vivo [10]: 90.5% | Pollensterilität in % [11]: 100% | Ansetzen von Achänen im Isolator bei der Bestäubung mit dem Pollengemisch in % ([11]; V. or VI. period): 0,0% | Anzahl von Körnern der Ähre bei freier Bestäubung ([12]; Chulpan, V. or VI. period): 51,8 | Anzahl von Körnern der Ähre im Isolator ([12]; Chulpan, V. or VI. period): 0,3 | pest or weed control at 10000 g/ha ([12]; V. or VI. period): 99.4% | response vs control in vivo at 10000 g/ha [12]: 91.4% | Anzahl von Körnern der Ähre bei freier Bestäubung [13, 17]: 35,2 | Anzahl von Körnern der Ähre im Isolator [13, 17]: 2,3 | pest or weed control at 20000 g/ha ([13]; V. or VI. period of organogenesis, read-out: Prozentsatz der Sterilität): 93.7% | response vs control in vivo at 20000 g/ha [13]: 86.2%

OCC(O)CSc1ccccc1F (centres unmarked) [Beispiel 7, 3-(2'-Fluorphenylthio)-propandiol-I,2]
Anzahl von Körnern der Rispe bei freier Bestäubung ([7]; V. or VI. period): 300,5 | Anzahl von Körnern der Rispe im Isolator ([7]; V. or VI. period): 0,0 | percent pollen sterility at 10000 g/ha [7, 16]: 100% | response vs control in vivo at 10000 g/ha [7]: 79.2% | LD50 (in vivo [2]): 400 mg/kg | Anzahl von Körnern der Ähre bei freier Bestäubung [10]: 24,6 | Anzahl von Körnern der Ähre im Isolator [10]: 0,0 | percent sterility at 10000 g/ha [10]: 100% | response vs control in vivo [10]: 89.5% | Anzahl von Körnern der Ähre bei freier Bestäubung ([12]; Chulpan, V. or VI. period): 53,4 | Anzahl von Körnern der Ähre im Isolator ([12]; Chulpan, V. or VI. period): 0,6 | percent sterility at 10000 g/ha ([12]; Chulpan, V. or VI. period, read-out: Prozentsatz der Sterilität): 98.8% | response vs control in vivo at 10000 g/ha [12]: 94.2% | Anzahl von Körnern der Ähre bei freier Bestäubung ([3]; V. or VI. period): 42,2 | Anzahl von Körnern der Ähre im Isolator ([3]; V. or VI. period): 0,0 | Prozentsatz des Ansetzens bei freier Bestäubung [3]: 94,4% | Anzahl von Körnern der Ähre bei freier Bestäubung [13, 17]: 36,7 | Anzahl von Körnern der Ähre im Isolator [13, 17]: 0,0 | response vs control in vivo at 20000 g/ha [13]: 90.6%

O=C(O)c1ccccc1F [Beispiel 24, Diätha- nolaminat der o-Fluorbenzoesäure]
Anzahl von Körnern der Rispe bei freier Bestäubung ([7]; V. or VI. period): 348,6 | Anzahl von Körnern der Rispe im Isolator ([7]; V. or VI. period): 0,0 | pest or weed control at 10000 g/ha [7, 16]: 100% | response vs control in vivo at 10000 g/ha [7]: 91.2% | Anzahl von Körnern der Ähre bei freier Bestäubung [10]: 27,1 | Anzahl von Körnern der Ähre im Isolator [10]: 2,2 | pest or weed control at 10000 g/ha [10]: 91.9% | response vs control in vivo [10]: 98.5% | Anzahl von Körnern der Ähre bei freier Bestäubung [12, 18]: 54,0 | Anzahl von Körnern der Ähre im Isolator [12, 18]: 0,0 | pest or weed control at 10000 g/ha ([12]; V. or VI. period): 100% | response vs control in vivo at 10000 g/ha [12]: 95.2% | LD50 (weisse Mäuse; weisse Mäuse, listed as Diäthanolaminsalz der o-Fluarbenzoesäure): 500 mg/kg Tiergewicht | Anzahl von Körnern der Ähre bei freier Bestäubung [14, 19]: 43,8 | Anzahl von Körnern der Ähre im Isolator [14, 19]: 0,9 | pest or weed control at 10000 g/ha [14, 16]: 97.8% | response vs control in vivo at 10000 g/ha ([14]; control = 100, read-out: Prozentsatz des Ansetzens bei freier Bestäubung): 98.9%

CCC(CO)(CO)CO [Trimethylolpropan]
Toxizität im Tierversuch [4]: praktisch nichttoxische

CCCCOC(=S)S [Beispiel 44, Kaliumbutylxanthogenat]
Anzahl von Körnern der Rispe bei freier Bestäubung [15]: 134,6 | Anzahl von Körnern der Rispe im Isolator [15]: 0,0 | Prozentsatz der Sterilität [15]: 100% | Prozentsatz des Ansetzens bei freier Bestäubung [15]: 91,2% | LD50 (in vivo [9]): 760 mg/kg | Ansetzen von Achänen bei freier Bestäubung in % (Sonnenblume Linie VK 119): 81,5% | Ansetzen von Achänen im Isolator bei der Bestäubung mit dem Pollengemisch in % (Sonnenblume Linie VK 119): 0,0% | Pollensterilität in % (Sonnenblume Linie VK 119): 100% | Pollensterilität in % [11]: 100% | Ansetzen von Achänen bei freier Bestäubung in % ([11]; V. or VI. period): 85,3% | Ansetzen von Achänen im Isolator bei der Bestäubung mit dem Pollengemisch in % ([11]; V. or VI. period): 0,0% | Anzahl von Körnern der Ähre bei freier Bestäubung ([12]; Chulpan, V. or VI. period): 48,0 | Anzahl von Körnern der Ähre im Isolator ([12]; Chulpan, V. or VI. period): 2,6 | pest or weed control at 10000 g/ha ([12]; V. or VI. period): 96.2% | response vs control in vivo at 10000 g/ha [12]: 84.7%

OCC(O)CSc1ccc(F)cc1 (centres unmarked) [Beispiel I3]
Anzahl von Körnern der Rispe bei freier Bestäubung [15]: 128,7 | Anzahl von Körnern der Rispe im Isolator [15]: 0,0 | Prozentsatz der Sterilität [15]: 100% | Prozentsatz des Ansetzens bei freier Bestäubung [15]: 87,7% | LD50 (in vivo [2]): ~400 mg/kg | Anzahl von Körnern der Ähre bei freier Bestäubung [10]: 26,4 | Anzahl von Körnern der Ähre im Isolator [10]: 2,0 | percent sterility at 10000 g/ha [10]: 92.3% | response vs control in vivo [10]: 96% | LD50 (weisse Mäuse; mouse, in vivo): 400 mg/kg Tiergewicht | Anzahl von Körnern der Ähre bei freier Bestäubung [13, 17]: 38,2 | Anzahl von Körnern der Ähre im Isolator [13, 17]: 3,2 | response vs control in vivo at 20000 g/ha [13]: 94.3%
